Entries after “also recorded” stand apart in the source; their conditions may differ. Where a SMILES comes first, the peptide text is derived from it. [ ]: non-standard residue; d: D form.
Assays:
[1] = target: T1, TTR (Homo sapiens, UniProt P02766); test: Immobilized designs on agarose beads, binding of TTR from solution (dot blot); details: immobilized design; for binding of pre-incubated, toxic oligomer-containing TTR: TTR pre-incubated at low pH for 24 hrs
T1 construct: purchased Lee Biosolutions, St. Louis Mo; 496-11

[2] = system: Aβ, IAPP and TTR amyloidosis / toxic oligomer; test: Inhibitory activity summary: inhibition of aggregation and/or binding of toxic oligomer; format: biochemical
Protocol: In addition, FIG. 5 contains ‘control’ designs aimed at reverse engineering the α1 design, which is presented in more detail in Example 3. […] These designs are both linear and cyclic peptides designed to be hairpins.
The “control” designs were tested as general inhibitors against the Amyloid β 1-42 peptide (Aβ) (panel A), the islet amylin polypeptide (IAPP, or amylin, which is implicated in type 2 diabetes) (panel B), and transthyretin (TTR) (panel C) amyloidosis (FIG. 6). […] As described in Example 1, a Thioflavin T (ThT) fluorescence assay was used to monitor Aβ and IAPP aggregation. A Congo Red dye-binding assay was used to monitor TTR fibrillization. For inhibition against Aβ, peptides were co-incubated at 4-fold excess of Aβ at RT in neutral pH buffer containing ThT. […] For inhibition against IAPP, peptides were co-incubated at 8-fold excess of IAPP at 37° C. in neutral pH buffer containing 20 μM ThT. For inhibition against TTR, peptides were co-incubated at 10-fold excess of monomeric TTR.
The data in FIG. 6 were normalized to ThT fluorescence of the negative (uninhibited) control (black squares). Inhibition traces are ordered vertically according to sequence identity to α1 (see Table 1). Sigmoidal fits to data are included. Controls are identical throughout a single panel, and traces for inhibition samples are colored while the uninhibited aggregation profiles are in black.

[3] = target: T2, transthyretin (TTR) (Homo sapiens, UniProt P02766); test: TTR fibrillization assay (Congo red binding); format: biochemical; details: for inhibition of the remaining TTR aggregation: peptide added to 24-hour pre-incubated, toxic TTR, versus aggregation in the absence of inhibitor
T2 construct: purchased Lee Biosolutions, St. Louis Mo; 496-11
Protocol: Aliqouts of transthyretin (TTR) (496-11; Lee Biosolutions, St. Louis Mo.) were made from a 1 mg/mL solution 20 mM ammonium carbonate, pH 8. Aliquots were lyophilized and stored at −18° C. Prior to use, TTR was dissolved to 80 μM (monomer) in acetate buffer (50 mM potassium acetate, 100 mM potassium chloride pH 4.5) and sonicated for 10 minutes. The stock solution was centrifuged before use. Peptide designs were added to stock TTR to a final TTR concentration of 40 μM (monomer) in acetate buffer (pH 4.5) in 500 μL microcentrifuge tubes, which were incubated at 37° C. Periodically, samples were collected from the TTR:peptide mixture by briefly centrifuging, and then carefully pipetting the solution up and down prior to withdrawing a 10 μL sample and diluting it in 190 μL of 10 μM Congo red in an individual well of a 96-well assay plate. Each measurement was performed in triplicate. Absorbance measurements were taken at 477 and 540 nm. Relative Congo red binding was determined using the method of Klunk et al. using the relationship: rCb=(Abs540/25,295)−(Abs477/46,306) (40). All datapoints were normalized to the value recorded for TTR alone pH 4.5 at 48 hrs.
(§1) The “control” designs were tested as general inhibitors against the Amyloid β 1-42 peptide (Aβ) (panel A), the islet amylin polypeptide (IAPP, or amylin, which is implicated in type 2 diabetes) (panel B), and transthyretin (TTR) (panel C) amyloidosis (FIG. 6). […] As described in Example 1, a Thioflavin T (ThT) fluorescence assay was used to monitor Aβ and IAPP aggregation. A Congo Red dye-binding assay was used to monitor TTR fibrillization. For inhibition against Aβ, peptides were co-incubated at 4-fold excess of Aβ at RT in neutral pH buffer containing ThT. Note that the results for α1 differ somewhat from what are included in Example 1 because the assay conditions were altered slightly to slow the process down to favor oligomerization of Aβ (rather than fibril elongation) by lowering the temperature to 25° C. […] For inhibition against IAPP, peptides were co-incubated at 8-fold excess of IAPP at 37° C. in neutral pH buffer containing 20 μM ThT. For inhibition against TTR, peptides were co-incubated at 10-fold excess of monomeric TTR.

[4] = target: T3, Aβ (Homo sapiens, UniProt P05067); test: Immobilized designs on agarose beads, binding of Aβ from solution (dot blot); details: immobilized design; for binding of pre-aggregated, toxic Aβ: Aβ pre-aggregated for 6 hrs
T3 construct: Aβ (1-42) (AMYD-002; CPC Scientific, Sunnyvale Calif.); purchased CPC Scientific, Sunnyvale Calif; AMYD-002

[5] = target: T4, Aβ (1-42) (Homo sapiens, UniProt P05067); test: Aβ fibrillization assay (Thioflavin T fluorescence); format: biochemical; details: for time of aggregation at which the inhibitory effect is exerted: 10:1 excess, 37° C., ThT; for inhibition of Aβ fibril formation: co-incubated in 10:1 excess (100 μM peptide, 10 μM Aβ), pH 7.4, 37° C., measured at 22 hours; for inhibition of aggregation of pre-aggregated, toxic Aβ: designs added to Aβ pre-aggregated for 6 hrs, versus aggregation in the absence of inhibitor
T4 construct: Aβ (1-42) (AMYD-002; CPC Scientific, Sunnyvale Calif.); purchased CPC Scientific, Sunnyvale Calif; AMYD-002
Protocol: Similarly, the designs were co-incubated (in 10:1 excess) with Aβ at pH 7.4 and followed fibril formation with ThT fluorescence changes upon binding at 37° C. (FIG. 2c). As observed for TTR, both α1 and α3 inhibited aggregation. Again α1 was more efficient, inhibiting approximately 87% of fibril formation compared with 66% for α3, when measured after the reaction stabilized at 22 hours. […] The 37° C. studies are reported here, though, for comparison with TTR, which aggregates very slowly at 25° C.
Aβ (1-42) (AMYD-002; CPC Scientific, Sunnyvale Calif.) was stored as 2 mg/mL stock in hexafluoroisopropanol (HFIP) at −18° C. Prior to use, the stock solution was thawed, an aliquot taken and the HFIP was removed under a gentle stream of air. A 1 mg/mL stock solution of Aβ was made in 5 mM NaOH and sonicated for 5-10 minutes. The stock was filtered through a 0.22 μm cellulose filter (Costar Spin-X; Corning Inc, NY). The concentration of stock Aβ was determined by first diluting the stock 1:50 in 5 mM NaOH then taking the absorbance at 220 nm (ε220=50,000 cm^−1 M^−1). Aliquots of the NaOH stock were placed in separate wells of a 96-well black-walled fluorescence plate (Nunc) and immediately diluted in PBS (11 mM phosphate) containing 20 μM Thioflavin T (ThT) to give 150 μL of 10 μM Aβ at pH 7.5. Peptide inhibitors were added directly to 10 μM Aβ samples from concentrated aqueous stocks. Covered plates were incubated at 37° C. and were periodically removed for fluorescence measurements. ThT fluorescence was measured at λex=450 nm and λem=480 nm using a Tecan Safire2 plate reader.
as §1

[6] = Solubility and solution behaviour of the designs; details: for solubility: aqueous solution-phase experiments
[7] = system: human neuroblastoma cell line SH-SY5Y
Protocol: The toxicity of aggregates was tested against the human neuroblastoma cell line SH-SY5Y in an MTT cell viability assay. The human neuroblastoma cell line SH-SY5Y (CRL-226; American Type Culture Collection) was grown in 75 cm^2 flasks in 1:1 DMEM/F12 (CellGro) supplemented with 10% FBS and 50 units/mL penicillin/50 μg/mL streptomycin (complete media), and incubated at 37° C. in humidified 5% CO2 environment. Cells were routinely passaged when they reached 90% confluence by addition of trypsin (Gibco) and replated at a ratio of 1:10 in complete media. Cells were plated to a density of 25,000 cells/well in a 96-well plate (100 μL/well) and allowed to attach overnight. The cell assay was performed as described by Reixach et al. (41).

T4 sequence (P05067 672-713 limits assumed): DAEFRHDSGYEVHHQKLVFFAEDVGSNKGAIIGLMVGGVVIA
T3 sequence (P05067 672-713 limits assumed): as above

Row | Compound | binding of native, tetrameric TTR [1] | binding of pre-incubated, toxic oligomer-containing TTR ([1]; listed as α1) | Inhibits Aggregation and/or binds oligomer? [2] | inhibition of the remaining TTR aggregation [3] [%] | percentage inhibition of TTR aggregation ([3]; peptide co-incubated in excess 20:1 (800 μM) with 40 μM TTR monomer, pH 4.5, 37° C., after 48 hours, relative to TTR alone at low pH) [%] | binding of pre-aggregated, toxic Aβ ([4]; listed as α1) | binding of fresh, monomeric Aβ ([4]; fresh (0 h) Aβ) | inhibition of Aβ aggregation at 4-fold excess ([5]; 4-fold excess of peptide, 25° C. (RT), neutral pH buffer with ThT, listed as α1) | time of aggregation at which the inhibitory effect is exerted [5] | inhibition of Aβ fibril formation [5] | inhibition of aggregation of pre-aggregated, toxic Aβ [5] [%] | binding of pre-incubated, toxic oligomer-containing TTR [1] | solubility [6] | binding of pre-aggregated, toxic Aβ [4] | association state in solution ([6]; NMR conditions: very high sample concentrations, 50 mM potassium phosphate, 100 mM KCl pH 5.8) | inhibition at 800 µM ([3]; peptide co-incubated in excess 20:1 (800 μM) with 40 μM TTR monomer, pH 4.5, 37° C., after 48 hours, relative to TTR alone at low pH, read-out: percentage inhibition of TTR aggregation) [%] | viability of treated cells [7]
1 | Ac-RGEmNiSwMNEYSGWtMnLkMGR-NH2 [peptide #1] | did not bind | to a greater extent than the rc and β controls; also recorded: more strongly bound | demonstrate activity and yes | 81 | 72 | preferentially bound the pre-aggregated, toxic form of Aβ | did not bind | essentially completely abolishes aggregation; also recorded: quenches Aβ aggregation | approximately 6 hrs | approximately 87% | 97 | – | – | – | – | – | –
2 | CSCC[C@H](NC(=O)[C@@H](CCCCN)NC(=O)[C@H](CS)NC(=O)[C@@H](CC(N)=O)NC(=O)[C@H](CCSC)NC(=O)[C@H](NC(=O)[C@H](Cc1c[nH]c2ccccc12)NC(=O)CNC(=O)[C@H](Cc1ccc(O)cc1)NC(=O)[C@H](Cc1ccc(O)cc1)NC(=O)[C@H](CCC(=O)O)NC(=O)[C@H](CC(N)=O)NC(=O)[C@H](CCSC)NC(=O)[C@@H](Cc1c[nH]c2ccccc12)NC(=O)[C@H](Cc1ccccc1)NC(=O)[C@@H](Cc1ccc(O)cc1)NC(=O)[C@H](CC(N)=O)NC(=O)[C@@H](CCSC)NC(=O)[C@H](CCC(=O)O)NC(=O)CNC(=O)[C@H](CCCNC(=N)N)NC(C)=O)[C@H](C)O)C(=O)NCC(=O)N[C@@H](CCCNC(=N)N)C(N)=O [α2] (Ac-RGE[dM]N[dY]F[dW]MNEYYGW[dT]M[dN]C[dK]MGR-NH2) | – | – | – | – | – | – | – | – | – | – | – | to a greater extent than the rc and β controls; also recorded: more strongly bound | sparingly soluble; also recorded: not soluble enough for NMR | bound pre-aggregated, toxic Aβ preferentially | – | – | –
3 | CSCC[C@@H]1NC(=O)[C@@H]([C@H](C)O)NC(=O)[C@H](Cc2c[nH]c3ccccc23)NC(=O)[C@@H](C)NC(=O)[C@H](C)NC(=O)[C@H](C)NC(=O)[C@H](C)NC(=O)[C@H](CC(N)=O)NC(=O)[C@H]([C@@H](C)O)NC(=O)[C@@H](Cc2c[nH]c3ccccc23)NC(=O)[C@H](CO)NC(=O)[C@@H](CCCCN)NC(=O)[C@H](CCC(N)=O)NC(=O)[C@@H](CCC(N)=O)NC(=O)[C@H](CCCCN)NC(=O)[C@H](CC(N)=O)NC(=O)[C@H]2CCCN2C(=O)[C@H](CCC(=O)O)NC(=O)[C@@H](CCCCN)NC(=O)[C@H](CC(C)C)NC(=O)[C@@H](CCC(N)=O)NC1=O [α3] (cyclo([dQ]Q[dK]S[dW]TNAAA[dA]W[dT]M[dQ]L[dK]E[dP]NK)) | – | – | – | 77 | – | – | – | – | approximately 6 hrs | 66% | 96 | to a greater extent than the rc and β controls; also recorded: more strongly bound | soluble | bound pre-aggregated, toxic Aβ preferentially | well-behaved monomers | 56 | –
4 | Aβ: β-amyloid peptide 1-42 (AMYD-002; CPC Scientific) | – | – | – | – | – | – | – | – | – | – | – | – | – | – | – | – | less than 50%
